Laboratory results as given in PubChem BioAssay AID1645863 (Buhrlage Lab, Dana-Farber Cancer Institute and Novartis …, 2021).
Active and inactive are the calls of the source. How the calls were made is not given here.

Molecular target: Ubiquitin carboxyl-terminal hydrolase 10 (Homo sapiens) (UniProt Q14694)
Assay: ubiquitin-specific protease 10 DUB inhibitors, concentration-effect, biochemical, verification of primary screen actives (AID 1645863);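 further: potency values describe inhibition of USP10 cleavage of a fluorogenic ubiquitin substrate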
Conditions: USP10 deubiquitinase enzymatic assay

Chain of Ubiquitin carboxyl-terminal hydrolase 10 (Homo sapiens) (Q14694 whole entry, looked up): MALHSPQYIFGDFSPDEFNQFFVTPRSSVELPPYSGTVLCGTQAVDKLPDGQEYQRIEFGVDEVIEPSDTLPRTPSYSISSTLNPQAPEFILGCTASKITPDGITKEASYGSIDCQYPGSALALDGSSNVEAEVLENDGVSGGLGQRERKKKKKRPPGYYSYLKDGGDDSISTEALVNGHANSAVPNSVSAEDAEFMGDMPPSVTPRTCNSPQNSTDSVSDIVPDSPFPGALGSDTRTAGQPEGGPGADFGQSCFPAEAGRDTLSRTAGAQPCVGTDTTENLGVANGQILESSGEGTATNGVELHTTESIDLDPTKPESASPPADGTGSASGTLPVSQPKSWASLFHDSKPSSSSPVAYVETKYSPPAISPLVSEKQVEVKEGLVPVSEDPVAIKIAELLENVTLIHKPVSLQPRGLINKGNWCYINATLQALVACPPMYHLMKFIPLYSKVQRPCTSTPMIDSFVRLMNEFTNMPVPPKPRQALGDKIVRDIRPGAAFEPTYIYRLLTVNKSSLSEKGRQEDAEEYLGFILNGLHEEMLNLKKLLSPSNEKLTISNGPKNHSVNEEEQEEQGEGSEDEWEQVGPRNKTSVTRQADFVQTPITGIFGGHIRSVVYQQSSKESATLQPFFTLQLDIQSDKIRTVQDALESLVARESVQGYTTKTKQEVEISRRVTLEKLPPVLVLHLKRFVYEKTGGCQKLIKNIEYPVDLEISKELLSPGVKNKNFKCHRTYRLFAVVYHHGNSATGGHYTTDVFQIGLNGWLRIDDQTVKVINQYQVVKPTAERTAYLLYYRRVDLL

| IC50 | SMILES |
| --- | --- |
| 27.8 µM | COc1ccc(NC(=O)Cn2c(=O)n(CCCC(=O)NC3CCCC3)c(=O)c3cc(Cl)ccc32)c(OC)c1 |
| 12.2 µM | Cc1nc(N2CCCC2)ncc1-c1cc(=O)[nH]c(Nc2ccc(Cl)cc2Cl)n1 |
| > 40 µM (inactive) | O=C(c1ccc2c(c1)OCO2)[C@@H]1[C@H](C(=O)OC(c2ccccc2)c2ccccc2)N2c3ccccc3C=CC2[C@@]12C(=O)Nc1ccccc12 (stereo partly drawn) |
| 16.6 µM | O=c1c2ccccc2oc2nc(-c3cccs3)n(-c3ccccc3)c(=O)c12 |
| 13.6 µM | COc1ccc(CCC(=O)Nc2nnc(C3CC(=O)N(c4ccc(C)cc4)C3)s2)cc1 (stereo not drawn) |
| > 40 µM (inactive) | COc1cc(NC(=O)c2ccc3c(c2)OCO3)ccc1-c1cc2ccccc2oc1=O |
| 15.4 µM | Cc1ccc(C)c(NC(=O)Cn2cc(C(=O)C3CC3)c3ccccc32)c1 |
| 21.1 µM | O=C(NC1CCCCCC1)c1cccc(S(=O)(=O)Nc2cc(C(F)(F)F)ccc2Cl)c1 |
| 23 µM | Cc1cc(NC(=O)Cn2c(=O)n(Cc3ccco3)c(=O)c3ccc(C(=O)NCCc4ccccc4)cc32)n[nH]1 |
| > 40 µM (inactive) | CCc1cccc(NC(=O)Cc2nnc3ccc(-c4nc(C)no4)cn23)c1 |
| > 40 µM (inactive) | Cn1cc2cccc(NC(=O)c3ccc(F)cc3)c2n1 |
| > 40 µM (inactive) | Cc1noc(C)c1COc1cccc(C(=O)Nc2cc(Cl)ccc2-n2cncn2)c1 |
| 19.1 µM | O=C(Nc1cccc(Cl)c1)c1ncn2c1CNS(=O)(=O)c1ccccc1-2 |
| 15.5 µM | Cc1cc(OCC(=O)Nc2ccc3c(c2)NC(=O)CO3)ccc1Cl |
| 15 µM | COc1ccc(/C=C/C(=O)Nc2cccc(S(=O)(=O)Nc3ccccc3Cl)c2)c(OC)c1 |
| > 40 µM (inactive) | c1ccc(CNc2ccc(-c3ccccc3)nn2)cc1 |
| > 40 µM (inactive) | O=C(c1ccc2cc[nH]c2c1)N1CCC(Nc2cccnc2)C1 (stereo not drawn) |
| > 40 µM (inactive) | O=C(Nc1ccncc1)c1cn(Cc2ccccc2)cc2c(=O)n(-c3ccccc3)nc1-2 |
| > 40 µM (inactive) | Cn1c(=O)n([C@@H](Cc2ccccc2)C(=O)N[C@@H](C(=O)O)c2ccc(O)cc2)c(=O)c2ccccc21 |
| 16 µM | COC(=O)c1ccc2c(=O)n(CCCCCC(=O)NCc3cccc(Cl)c3)c(=O)[nH]c2c1 |
| 14 µM | COc1cc(-c2ccccc2)c(O)c(O)c1-c1ccccc1 |
| > 40 µM (inactive) | COc1ccc(CNc2ccc(C(=O)OCc3ccccc3F)cc2S(=O)(=O)Nc2cccc(OC)c2)cc1 |
| 25.3 µM | O=C(Nc1ccccc1Cc1ccccc1)c1nc2n(n1)-c1ccccc1S(=O)(=O)N2 |

| IC50 | SMILES |
| --- | --- |
| 14.5 µM | CC(C)=CCC/C(C)=C/COc1ccc(/C=C2\C(=O)N(O)[C@@H](C)C(=O)N2O)cc1 |
| > 40 µM (inactive) | Cc1ccc(NC(=O)CSc2ccc(NC(=O)c3ccc(C(=O)O)cc3C(=O)O)cc2)c(C)c1 |
| > 40 µM (inactive) | Cc1ccc(C(=O)O)cc1NC(=O)C(Sc1cccc(NC(=O)c2cccc(Cl)c2)c1)c1ccccc1 (stereo not drawn) |
| 33 µM | O=C(NCc1ccc2c(c1)OCO2)c1cn(-c2cccc(Cl)c2)nn1 |
| 37.9 µM | COc1ccc(NC(=O)[C@H](C)NC(=O)c2cc3c(OC)cccc3[nH]2)cc1Cl |
| > 40 µM (inactive) | O=C(Nc1ccc2c(c1)CCC2)C1Cc2ccccc2CN1C(=O)c1ccccc1 (stereo not drawn) |
| 30.5 µM | O=C(Cn1c(=O)n(Cc2ccc3c(c2)OCO3)c(=O)c2ccccc21)NCc1ccco1 |
| > 40 µM (inactive) | CN1CC(c2ncn[nH]2)c2cc(C(=O)NCc3cccc(F)c3)ccc21 (stereo not drawn) |
| 16.6 µM | CCC1OC(O)(C(C)C(O)C(C)C2OC(=O)/C(C)=C/C(C)=CC(C)C(O)C(C)C/C(C)=C/C=C/C2OC)CC(OC(=O)/C=C/C(=O)NC2=C(O)CCC2=O)C1C (stereo not drawn) |
| > 40 µM (inactive) | CNC(=O)c1cc2nc(N(C)C)n(-c3ccc(F)cc3)c2s1 |
| > 40 µM (inactive) | CCCCOc1ccc(-c2cc3n(c(=N)c2C#N)CCc2cc4c(cc2-3)OCCCO4)cc1OC |
| > 40 µM (inactive) | COC(=O)c1ccc2c(=O)n(-c3ccc(C)c(F)c3)c(N3CCC(C(N)=O)CC3)nc2c1 |
| > 40 µM (inactive) | COc1ccc(NC(=O)CNC(=O)c2ccc3nc(-n4cccc4)sc3c2)cc1 |
| > 40 µM (inactive) | CCNS(=O)(=O)c1ccc(-c2ccc(-n3cnnn3)cc2)cc1 |
| > 40 µM (inactive) | c1cncc(-c2cnc3sc(NCc4ccc5c(c4)OCO5)nn23)c1 |
| > 40 µM (inactive) | Cc1cc(=O)n(C)c2c(O)c3c(cc12)c(C)cc(=O)n3C |
| 28.9 µM | COc1cc(OC)c(NC(=O)c2cc(-c3ccccn3)n[nH]2)cc1Cl |
| > 40 µM (inactive) | COc1ccc(/C=C/C(=O)Nc2nc3n(n2)C(c2ccccc2)CC(=O)N3)cc1 (stereo not drawn) |
| > 40 µM (inactive) | COC(=O)c1ccccc1NC(=O)C1CCCN(c2nnc(-n3cccc3)s2)C1 (stereo not drawn) |
| > 40 µM (inactive) | O=C(CCSc1nnnn1-c1ccccc1)Nc1cc(C(F)(F)F)ccc1Cl |
| > 40 µM (inactive) | Cn1c(C(=O)NCc2ccccn2)cc2c(=O)[nH]c3ccccc3c21 |
| 10.4 µM | C=C/C(C)=C/[C@@]1(C)SC(=O)C(C)=C1O |

Further lines, the molecule ahead of its results:

| SMILES | IC50 |
| --- | --- |
| O=C(Cn1c(-c2nc(-c3cccc(F)c3)no2)cccc1=O)NCc1ccco1 | > 40 µM (inactive) |
| Cc1cc(C)cc(NC(=O)Nc2ccccc2OCc2cc(=O)n3c(ncn3C(C)C)n2)c1 | 14.3 µM |
| Cc1cc(NC(=O)c2cc(-c3cccnc3)n[nH]2)ccc1Br | 28.6 µM |
| COc1ccc(OC)c(NC(=O)c2cc(Cl)ccc2OC)c1 | > 40 µM (inactive) |
| COc1ccc(Cl)cc1NC(=O)c1cc(-c2ccccn2)n[nH]1 | 9.33 µM |
| Cc1ccc(CC(=O)Nc2ccc(C)cc2-c2n[nH]c(C3CC3)n2)cc1 | > 40 µM (inactive) |
| Cc1ccc(-c2nnc3ccc(SCC(=O)N4CCCc5ccccc54)nn23)cc1 | > 40 µM (inactive) |
| Cc1ccc(CNC(=O)Cn2c(=O)n(CCCC(=O)NCc3ccc(F)cc3)c(=O)c3ccccc32)cc1 | 17.3 µM |
| COc1ccc(-c2nc3c(c(=O)c4ccccc4n3C)c(=O)n2Cc2ccco2)cc1 | 28.7 µM |
| COc1cc2c(c(OCC(=O)Nc3ccc4c(c3)OCCO4)c1)C(=O)O[C@@H](C)CCCC(=O)CCCCC2 | 31.5 µM |
| Cc1nnc(-c2ccc3ccn(CC(=O)N4CCN(c5ccccc5)CC4)c3c2)o1 | > 40 µM (inactive) |
| COc1ccc(-c2cc3nc([C@H](C)NC(=O)Cc4ccccc4C)nn3cn2)cc1 | > 40 µM (inactive) |
| COc1cc2c(oc(=O)c3cc(C)cc(OC)c32)c2c([C@@H]3OC(C)[C@@H](O)[C@@](C)(O)C3O)ccc(O)c12 (stereo partly drawn) | > 40 µM (inactive) |
| O=C1CC(c2ccccc2)n2ncnc2N1 (stereo not drawn) | > 40 µM (inactive) |
| O=C(O)C1C(C(=O)Nc2ccccc2)C2(c3ccccc3)C(=O)C1(c1ccccc1)C(c1ccccc1)=C2c1ccccc1 (stereo not drawn) | 4.25 µM |
| Cc1cccc(C)c1NC(=O)COc1ccccc1-c1nnc(-c2ccccc2)o1 | > 40 µM (inactive) |
| FC(F)(F)c1ccc(Nc2nnnc3ccccc23)cc1 | 16.6 µM |
| Cc1cc(C)c(NC(=O)Cn2c(=O)n(CCC(=O)NCc3ccc4c(c3)OCO4)c(=O)c3sccc32)c(C)c1 | 21.4 µM |
| O=C(Cn1cnc2cc([N+](=O)[O-])ccc2c1=O)NCc1ccc2c(c1)OCO2 | > 40 µM (inactive) |
| O[C@H]1[C@H](NCc2cccc(C(F)(F)F)c2)[C@@H](c2cncnc2)C[C@H]1O | > 40 µM (inactive) |
| Nc1ccc2oc(-c3cccc(-c4nc5cc(N)ccc5o4)n3)nc2c1 | 26.6 µM |
| O=C(c1ccccn1)N1CCC2(CC1)CC1(CO2)Nc2ccccc2-n2cccc21 (stereo not drawn) | > 40 µM (inactive) |
| COCCCNC(=O)c1ccc(Cn2c(=O)c3ccccc3n(CC(=O)Nc3ccc4c(c3)OCCO4)c2=O)cc1 | > 40 µM (inactive) |
| CCn1c(CNC(=O)c2cccc(C)c2)nnc1SCC(=O)N1CCc2ccccc21 | > 40 µM (inactive) |

| SMILES | IC50 |
| --- | --- |
| CC(C)=CCc1c2c(c3occ(-c4ccc(O)cc4)c(=O)c3c1O)C=CC(C)(C)O2 | > 40 µM (inactive) |
| O=c1c2ccccc2nc(CSc2cccc(Cl)c2Cl)n1-c1ccccc1 | > 40 µM (inactive) |
| CCc1ccc(OCCn2c(CCNC(=O)C3CCCCC3)nc3ccccc32)cc1 | > 40 µM (inactive) |
| Cc1cc(OCC(=O)Nc2ccccc2C(=O)Nc2ccccc2)ccc1Cl | 24.6 µM |
| COc1cc(NS(=O)(=O)c2ccc(NC(=O)COc3ccc(C)cc3Br)cc2)nc(OC)n1 | 38.6 µM |
| NC(=O)c1nc(-c2cccnc2)nc2c1[nH]c(=O)n2-c1ccc2c(c1)OCO2 | > 40 µM (inactive) |
| O=C(Cn1c(COc2ccccc2)nc2ccccc21)Nc1cc(Cl)ccc1Cl | > 40 µM (inactive) |
| COc1ccc(-c2cc(C(=O)Nc3ccnn3Cc3ccccc3)no2)cc1 | > 40 µM (inactive) |
| CNc1nc2c(c(=O)n1C)CN(C(=O)Nc1cccc3ccccc13)CC2 | > 40 µM (inactive) |
| COc1ccc(OC)c(-c2cn3ccn(-c4ccc(F)c(Cl)c4)c(=O)c3n2)c1 | 18.7 µM |
| Cc1[nH]nc(NC(=O)C2COc3ccccc3O2)c1-c1ccccc1 (stereo not drawn) | > 40 µM (inactive) |
| Cc1sc(NC(=O)Cn2nnc3ccccc32)nc1-c1ccc2c(c1)CCN2C(=O)c1ccccc1F | 16.3 µM |
| COc1cc(OC)c(NC(=O)Cn2c(=O)n(Cc3ccccc3Cl)c(=O)c3cc(OC)c(OC)cc32)cc1Cl | > 40 µM (inactive) |
| CN1c2ccccc2C(=O)NC12CCN(C(=O)NCc1ccccc1)CC2 | > 40 µM (inactive) |
| CC(C)CC(NC(=O)c1ccc(Cl)cc1Cl)c1nc2ccccc2[nH]1 (stereo not drawn) | > 40 µM (inactive) |
| COc1ccc(C)cc1NC(=O)C1CC(=O)Nc2nc3ccccc3n21 (stereo not drawn) | 28.1 µM |
| Cc1cc(C(=O)N2CCOCC2)c(C)n1-c1ccc(O)cc1 | > 40 µM (inactive) |
| Cc1cc(C)c(NC(=O)CSc2nc3nccnc3c(=O)n2Cc2ccccc2Cl)c(C)c1 | > 40 µM (inactive) |
| C/C=C/C=C/[C@@H]1Cc2cc(O)cc(O)c2O1 | 35.6 µM |
| O=C1C(=O)N(c2nc3ccc(F)cc3s2)C(c2ccc(F)cc2)/C1=C(\O)c1ccc(F)cc1 (stereo not drawn) | 11.5 µM |
| COc1ccc(-c2c(NC(=O)C3COc4ccccc4O3)n[nH]c2C)cc1OC (stereo not drawn) | > 40 µM (inactive) |
| Cc1noc(/C=C/Nc2cc(Cl)cc(Cl)c2)c1[N+](=O)[O-] | > 40 µM (inactive) |
| COc1ccc(-c2nc(NCCCN3CCOCC3)c3ccccc3n2)cc1 | > 40 µM (inactive) |
| CCn1cc2c(n1)c(=O)n(Cc1ccccc1)c(=O)n2CC(=O)Nc1ccc(C(C)C)cc1 | 15 µM |
